Molecules are shown by their SMILES. Activity calls are given as the source filed them. No cut-off for these calls is given here.

This assay can be described thus: Antioxidant activity assessed as hydroxyl radical scavenging activity at 10 mM at pH 7 by fenton reaction. Format: functional.
Consider `CNc1c(C)n(C)n(-c2ccccc2)c1=O`, for which the result was Active.

With `Cc1c(N)c(=O)n(-c2ccccc2)n1C`, the outcome was Active.

Turning to `Cc1c(N(C)C)c(=O)n(-c2ccccc2)n1C`, the outcome was Active.
